Experimental data taken from patent US11124497B1, “Inhibitors of cysteine proteases and methods of use thereof” (priority 2020, dated 2021).
Like-named read-outs stand apart in the source and are kept apart here.

Columns and labels:
[1] = biological target: 229E mPRO (Human coronavirus 229E (HCoV-229E), UniProt P0C6X1); test: 229E mPRO enzymatic assay; format: biochemical, Human Coronavirus (HCov) 229E
Procedure: Compounds were assayed using standard methods to assess compound activity and IC50. […] The assay buffer contained 20 mM of Tris-HCl (pH 7.3), 100 mM of NaCl, 1 mM of EDTA, 5 mM of TCEP and 0.1% BSA.
The compounds were added to an assay plate.
IC50 values of compounds were calculated with the GraphPad Prism software using the nonlinear regression model of log(inhibitor) vs. response—Variable slope (four parameters). The inhibition activity was calculated using the formula below, IC50 values was calculated using the Inhibition % data. Inhibition %=[(Sample−Average ZPE)/(Average HPE−Average ZPE)]*100%^# • ^#HEP: Hundred percent effect controls. […] Containing enzyme+substrate, no compound. • Sample: Compound activity testing wells. Containing compound+enzyme+substrate. • BG: Compound background control wells. Containing compound+substrate, no enzyme.

[2] = biological target: SARS-COV2 Mpro (Severe acute respiratory syndrome coronavirus 2 (2019-nCoV) (SARS-CoV-2), UniProt P0DTD1); test: COVID-19 (nCoV-2019, SARS-CoV2) Mpro enzymatic assay; format: biochemical; conditions: 25 nM Mpro, 25 μM substrate
[3] = tested on: HCoV 229E; test: HCoV 229E cytopathic effect (CPE) assay; format: cell-based, Human Coronavirus (HCov) 229E; conditions: unidentified human coronavirus, CellTiter Glo, read-out: 229 ECPE EC50
Procedure: Compounds were assayed using standard methods against multiple coronaviral strains, including HCoV 229E and OC43 strains. The antiviral activity of compounds was calculated based on the protection of the virus-induced CPE at each concentration normalized by the virus control.
Cytopathic effect (CPE) was measured by CellTiter Glo following the manufacturer's manual. The antiviral activity of compounds was calculated based on the protection of the virus-induced CPE at each concentration normalized by the virus control.

Sequence of 229E mPRO (P0C6X1 2966-3267 limits assumed): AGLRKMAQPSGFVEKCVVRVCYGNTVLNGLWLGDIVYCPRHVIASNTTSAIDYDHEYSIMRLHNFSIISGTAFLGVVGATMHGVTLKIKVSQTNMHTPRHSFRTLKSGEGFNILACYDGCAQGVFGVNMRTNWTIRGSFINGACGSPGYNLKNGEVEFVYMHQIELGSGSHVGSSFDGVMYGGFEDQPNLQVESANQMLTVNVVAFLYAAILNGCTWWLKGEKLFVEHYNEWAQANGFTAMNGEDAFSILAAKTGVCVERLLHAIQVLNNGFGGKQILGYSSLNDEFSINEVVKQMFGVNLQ

SMILES	IC50 ([1]; read-out: 229E mPRO IC50) [µM]	IC50 [2] [µM]	IC50 ([1]; 229E mPRO IC50 (μM)) [µM]	EC50 [3] [µM]
N#C[C@H](C[C@@H]1CCNC1=O)NC(=O)[C@@H]1CCc2ccc(NCC(=O)O)c(=O)n21 [Compound 501]	> 30	> 30		
CC(C)C[C@H](NC(=O)CC(C)(O)c1ccc(Cl)cc1)C(=O)N[C@H](C#N)C[C@@H]1CCNC1=O (single isomer, unassigned) [365 (Isomer 1)]			2 to 10	
CC[C@H]1CN(C(=O)c2cc3c(OC)cccc3[nH]2)[C@@H]1C(=O)N[C@H](C#N)C[C@@H]1CCNC1=O [Compound 391]	> 30	> 30		
COc1cccc2[nH]c(C(=O)N3CC4(CCOCC4)CC3C(=O)N[C@H](C#N)C[C@@H]3CCNC3=O)cc12 (stereo partly drawn) [Compound 387]	> 30			
COc1cccc2[nH]c(C(=O)N[C@@H](CC(C)C)C(=O)N[C@@H](C[C@@H]3CCNC3=O)C3OC(=O)N(c4ccccc4)C3=N)cc12 (stereo partly drawn) [Compound 359]	10 to 30			
COc1cccc2[nH]c(C(=O)N[C@@H](CC(C)C)C(=O)N[C@H](C#N)C[C@@H]3CCNC3=O)cc12 [Compound 101, N-[(1S)-1-[[(1S)-1-cyano-2-[(3S)-2-oxopyrrolidin-3-yl]ethyl]carbamoyl]-3-methyl-butyl]-4-methoxy-1H-indole-2-carboxamide]	< 22			< 22
N#C[C@H](C[C@@H]1CCNC1=O)NC(=O)[C@@H]1CS[C@H]2CC[C@H](N)C(=O)N21 [Compound 479]	10 to 30	> 30		
COc1cccc2[nH]c(C(=O)N3CC(C45CC(C4)C5)C[C@H]3C(=O)N[C@H](C#N)C[C@@H]3CCNC3=O)cc12 (single isomer, unassigned) [385 (Isomer 2)]	< 22			
N#C[C@H](C[C@@H]1CCNC1=O)NC(=O)[C@@H]1CS[C@H]2CC[C@H](NC(=O)OCC3c4ccccc4-c4ccccc43)C(=O)N21 [Compound 477]	> 30			
COc1cccc2[nH]c(C(=O)N[C@@H](CC(C)C)C(=O)N[C@H](C#N)Cc3cc[nH]n3)cc12 (mixture of isomers) [Compound 241]	> 30	> 30		
COc1cccc2[nH]c(C(=O)N[C@@H](CC(C)C)C(=O)N[C@H](C#N)Cc3n[nH]c4ccccc34)cc12 (mixture of isomers) [Compound 245]	> 30			
COc1cccc2[nH]c(C(=O)N3C[C@H](OC(C)(C)C)C[C@H]3C(=O)N[C@H](C#N)C[C@@H]3CCNC3=O)cc12 [Compound 165, (2S,4R)-4-(tert-butoxy)-N—((S)-1-cyano-2-((S)-2-oxopyrrolidin-3-yl)ethyl)-1-(4-methoxy-1H-indole-2-carbonyl)pyrrolidine-2-carboxamide]	> 30			
COc1cccc2[nH]c(C(=O)N[C@H](C(=O)N[C@H](C#N)C[C@@H]3CCNC3=O)[C@@H]3Cc4ccccc4O3)cc12 [Compound 147]	> 30			
CN1CCCC[C@]12CCN([C@@H](CC1CC1)C(=O)N[C@H](C#N)C[C@@H]1CCNC1=O)C2=O [Compound 273C]	2 to 10			
N#C[C@H](C[C@@H]1CCCNC1=O)NC(=O)[C@H](CC1CC1)NC(=O)c1cc2cccc(Cl)c2[nH]1 (single isomer, unassigned) [639 (Isomer 1)]	< 22			< 22
COc1cccc2[nH]c(C(=O)N[C@@H](CC(C)C)C(=O)N[C@@H](C[C@@H]3CCNC3=O)C(C#N)N3CCCC3)cc12 (single isomer, unassigned) [331 (Isomer 2)]	< 22			
CC(C)C[C@H](NC(=O)c1cc2c(OC(F)F)cccc2[nH]1)C(=O)N[C@H](C#N)C[C@@H]1CCNC1=O [Compound 509]	< 22			< 22
CCCN1C(=N)C([C@H](C[C@@H]2CCNC2=O)NC(=O)[C@H](CC(C)C)NC(=O)c2cc3c(OC)cccc3[nH]2)OC1=O (stereo partly drawn) [Compound 355]	2 to 10			> 30
COc1cccc2[nH]c(C(=O)N[C@@H](CC(C)(C)C)C(=O)N[C@H](C#N)C[C@@H]3CCCNC3=O)cc12 [Compound 643, N-[(1S)-1-[[(1S)-1-cyano-2-[(3S)-2-oxo-3-piperidyl]ethyl]carbamoyl]-3,3-dimethyl-butyl]-4-methoxy-1H-indole-2-carboxamide]	< 22			< 22
N#C[C@H](C[C@@H]1CCNC1=O)NC(=O)[C@@H]1C[C@@H](c2ccccc2)CN1C(=O)/C=C/c1ccc(Cl)cc1F [Compound 209, (2S,4S)-1-((E)-3-(4-chloro-2-fluorophenyl)acryloyl)-N—((S)-1-cyano-2-((S)-2-oxopyrrolidin-3-yl)ethyl)-4-phenylpyrrolidine-2-carboxamide]	10 to 30			
N#C[C@H](C[C@@H]1CCNC1=O)NC(=O)[C@H](CC1CC1)NC(=O)c1cc2cc(Cl)ccc2[nH]1 [Compound 519]	< 22			< 22

SMILES	IC50 ([1]; read-out: 229E mPRO IC50) [µM]	IC50 [2] [µM]	IC50 ([1]; 229E mPRO IC50 (μM)) [µM]	EC50 [3] [µM]
COc1cccc2[nH]c(C(=O)N[C@H](C(=O)N[C@H](C#N)C[C@@H]3CCNC3=O)C3Cc4ccccc4C3)cc12 [Compound 149, N-[(1S)-2-[[(1S)-1-cyano-2-[(3S)-2-oxopyrrolidin-3-yl]ethyl]amino]-1-indan-2-yl-2-oxo-ethyl]-4-methoxy-1H-indole-2-carboxamide]	2 to 10			2 to 10
COc1cccc2[nH]c(C(=O)N[C@@H](Cc3cccc(Cl)c3)C(=O)N[C@H](C#N)C[C@@H]3CCNC3=O)cc12 [Compound 153]	10 to 30			
CCO[C@@H]1C[C@@H](C(=O)N[C@H](C#N)C[C@@H]2CCNC2=O)N(C(=O)c2cc3c(OC)cccc3[nH]2)C1 [Compound 535]	> 30			
CCCOc1cccc2[nH]c(C(=O)N[C@@H](CC(C)C)C(=O)N[C@H](C#N)C[C@@H]3CCNC3=O)cc12 [Compound 379]	< 22			< 22
COc1cccc2[nH]c(C(=O)N[C@@H](CC(C)C)C(=O)N[C@@H](C[C@@H]3CCNC3=O)C3OC(=O)N(C(C)C)C3=N)cc12 (stereo partly drawn) [Compound 357]	> 30			
COc1cccc2[nH]c(C(=O)N[C@@H](CC3CCC3)C(=O)N[C@H](C#N)C[C@@H]3CCNC3=O)cc12 [Compound 577]	< 22			< 22
N#C[C@H](C[C@@H]1CCNC1=O)NC(=O)[C@H](CC1CC1)N1CCC2(CCCN2)C1=O (stereo partly drawn) [Compound 471]	10 to 30			
COc1cccc2[nH]c(C(=O)N[C@@H](CC(C)C)C(=O)N[C@@H](C[C@@H]3CCNC3=O)C(C#N)N3CCCC3)cc12 (single isomer, unassigned) [331 (Isomer 1)]	< 22			< 22
CCCNC(=O)OC(C#N)[C@H](C[C@@H]1CCNC1=O)NC(=O)[C@H](CC(C)C)NC(=O)c1cc2c(OC)cccc2[nH]1 (stereo partly drawn) [Compound 581]	> 30			
COc1cccc2[nH]c(C(=O)N3C[C@H](OC)C[C@H]3C(=O)N[C@H](C#N)C[C@@H]3CCNC3=O)cc12 [Compound 407]	< 22			< 22
N#C[C@H](C[C@@H]1CCNC1=O)NC(=O)[C@@H]1CCCNN1C(=O)/C=C/c1ccc(Cl)cc1F [Compound 213, (S)-2-((E)-3-(4-chloro-2-fluorophenyl)acryloyl)-N—((S)-1-cyano-2-((S)-2-oxopyrrolidin-3-yl)ethyl)hexahydropyridazine-3-carboxamide]	> 30			
CC(C)(C)OC(=O)N1CCCCC12CCN([C@@H](CC1CC1)C(=O)N[C@H](C#N)C[C@@H]1CCNC1=O)C2=O (single isomer, unassigned) [473 (Isomer 1)]	> 30			
COc1cccc2[nH]c(C(=O)N3CC(C45CC(C4)C5)C[C@H]3C(=O)N[C@H](C#N)C[C@@H]3CCNC3=O)cc12 (single isomer, unassigned) [385 (Isomer 1)]	< 22			< 22
N#C[C@H](C[C@@H]1CCNC1=O)NC(=O)[C@H](CC1CC1)NC(=O)c1cc2cccc(Cl)c2[nH]1 [Compound 531, 7-chloro-N-[(1S)-2-[[(1S)-1-cyano-2-[(3S)-2-oxopyrrolidin-3-yl]ethyl]amino]-1-(cyclopropylmethyl)-2-oxo-ethyl]-1H-indole-2-carboxamide]	< 22			< 22
CC(C)C[C@H](NC(=O)/C=C/c1ccc(Cl)cc1F)C(=O)N[C@H](C#N)C[C@@H]1CCNC1=O [Compound 598]	2 to 10			< 22
COc1cccc2[nH]c(C(=O)N3CCC4(CC4)C[C@H]3C(=O)N[C@H](C#N)C[C@@H]3CCNC3=O)cc12 [Compound 183, (S)—N—((S)-1-cyano-2-((S)-2-oxopyrrolidin-3-yl)ethyl)-6-(4-methoxy-1H-indole-2-carbonyl)-6-azaspiro[2.5]octane-5-carboxamide]	2 to 10			
COc1cccc2[nH]c(C(=O)N[C@@H](CC(C)C)C(=O)N[C@@H](C[C@@H]3CCNC3=O)C(C#N)OC(=O)NC(C)C)cc12 (stereo partly drawn) [Compound 583]	> 30			
COc1cccc2[nH]c(C(=O)N3C[C@H](c4ccccc4)CC3C(=O)N[C@H](C=O)C[C@@H]3CCNC3=O)cc12 (stereo partly drawn) [Compound 344A]				< 22
COc1cccc2[nH]c(C(=O)N3C[C@H](C4CCCCC4)C[C@H]3C(=O)N[C@H](C#N)C[C@@H]3CCNC3=O)cc12 [Compound 167, (2S,4S)—N—((S)-1-cyano-2-((S)-2-oxopyrrolidin-3-yl)ethyl)-4-cyclohexyl-1-(4-methoxy-1H-indole-2-carbonyl)pyrrolidine-2-carboxamide]	2 to 10			
COc1cccc2[nH]c(C(=O)N[C@@H](CC(C)C)C(=O)N[C@@H](C[C@@H]3CCNC3=O)C(C#N)NC(C)(C)C)cc12 (single isomer, unassigned) [323 (Isomer 1)]				< 22
COc1cccc2[nH]c(C(=O)N3C[C@H](SC)C[C@H]3C(=O)N[C@H](C#N)C[C@@H]3CCNC3=O)cc12 [Compound 551]				2 to 10
